In ChEMBL document CHEMBL5370693, “Kinases Controlling Stability of the Oncogenic MYCN Protein” (ACS Med Chem Lett, 2023) one finds inhibition and Activity data, which are given here for twelve molecules.

Holding throughout (format): cell-based
Experiment [1] addresses Serine/threonine-protein kinase 38-like (Homo sapiens) (UniProt Q9Y2H1). The experiment in a line: Inhibition of NDR2 in human SKNBE2 cells assessed as decreased accumulation of MYCN protein measured after 24 hrs by Western blot analysis. For orientation: Immunoblotting shows a protein as a band on a membrane.
Experiment [2] addresses T1, Serine/threonine-protein kinase Chk1 (Homo sapiens) (UniProt O14757).
T1 sequence (whole entry): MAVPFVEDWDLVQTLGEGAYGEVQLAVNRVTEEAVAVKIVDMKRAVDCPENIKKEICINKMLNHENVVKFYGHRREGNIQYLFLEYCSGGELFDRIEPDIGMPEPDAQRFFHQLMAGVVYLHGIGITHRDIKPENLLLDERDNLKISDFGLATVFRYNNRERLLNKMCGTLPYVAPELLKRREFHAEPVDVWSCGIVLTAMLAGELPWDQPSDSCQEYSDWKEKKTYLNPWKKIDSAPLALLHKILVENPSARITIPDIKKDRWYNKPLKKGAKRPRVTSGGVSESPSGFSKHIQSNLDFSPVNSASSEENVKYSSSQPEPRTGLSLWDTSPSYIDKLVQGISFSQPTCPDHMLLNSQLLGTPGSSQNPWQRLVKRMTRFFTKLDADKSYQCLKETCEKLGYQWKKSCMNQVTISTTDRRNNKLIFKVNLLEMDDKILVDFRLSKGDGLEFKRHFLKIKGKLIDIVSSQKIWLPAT
The experiment in a line: Inhibition of CHK1 in human SKNBE2 cells assessed as depletion of MYCN protein at >1 uM incubated for 24 hrs by Western blotting analysis.

Experiment [3] deals with T2, N-myc proto-oncogene protein (Homo sapiens) (UniProt P04198).
T2 sequence (whole entry): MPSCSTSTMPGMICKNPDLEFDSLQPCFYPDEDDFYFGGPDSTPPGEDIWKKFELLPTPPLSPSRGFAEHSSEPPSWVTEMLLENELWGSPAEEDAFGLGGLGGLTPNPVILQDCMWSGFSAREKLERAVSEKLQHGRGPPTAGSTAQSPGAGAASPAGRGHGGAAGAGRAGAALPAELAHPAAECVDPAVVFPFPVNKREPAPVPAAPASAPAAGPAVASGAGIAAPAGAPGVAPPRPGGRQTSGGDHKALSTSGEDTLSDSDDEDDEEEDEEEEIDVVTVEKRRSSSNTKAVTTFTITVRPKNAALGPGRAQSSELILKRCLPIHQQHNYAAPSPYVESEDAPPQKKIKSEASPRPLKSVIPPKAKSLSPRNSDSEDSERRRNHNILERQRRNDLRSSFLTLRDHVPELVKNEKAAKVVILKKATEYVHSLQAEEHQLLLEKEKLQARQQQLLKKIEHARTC
The experiment in a line: Induction of MYCN degradation in human SKNBE2 cells incubated for 24 hrs by Western blot analysis. The conditions noted are these: dose 1-50 µM.

Experiment [4] deals with Serine/threonine-protein kinase 38-like (Homo sapiens) (UniProt Q9Y2H1). The experiment in a line: Binding affinity to STK38L in human SKNBE2 cells assessed as effect on thermal stability at 49 degC incubated for 3 hrs by CETSA assay.
Serine/threonine-protein kinase 38-like (Homo sapiens), sequence (Q9Y2H1 2-464 limits assumed): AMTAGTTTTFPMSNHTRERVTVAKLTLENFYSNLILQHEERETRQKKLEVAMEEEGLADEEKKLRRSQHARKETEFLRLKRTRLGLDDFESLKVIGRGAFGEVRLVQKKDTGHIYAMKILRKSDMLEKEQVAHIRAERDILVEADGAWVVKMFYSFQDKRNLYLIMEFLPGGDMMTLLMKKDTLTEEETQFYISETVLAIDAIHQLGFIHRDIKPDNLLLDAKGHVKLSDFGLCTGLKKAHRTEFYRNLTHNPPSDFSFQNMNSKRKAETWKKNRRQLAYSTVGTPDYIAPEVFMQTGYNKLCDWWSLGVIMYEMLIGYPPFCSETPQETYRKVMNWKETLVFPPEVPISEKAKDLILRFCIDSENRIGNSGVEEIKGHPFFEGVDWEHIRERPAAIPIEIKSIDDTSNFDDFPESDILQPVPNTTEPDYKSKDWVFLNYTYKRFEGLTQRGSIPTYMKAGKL
For experiment [5] the target is unchanged. The experiment in a line: Inhibition of NDR2 in human SKNBE2 cells assessed as depletion of MYCN protein at 10 uM measured after 24 hrs in presence of Cx4945 by Western blot analysis.
For experiment [6] the target is unchanged. The experiment in a line: Inhibition of NDR2 in human SKNBE2 cells assessed as depletion of MYCN protein at 10 uM measured after 24 hrs in presence of BEZ235 by Western blot analysis.
The target is the same in experiment [7]. The experiment in a line: Inhibition of NDR2 in human SKNBE2 cells assessed as depletion of MYCN protein at 10 uM measured after 24 hrs in presence of CHIR-124 by Western blot analysis.
The target is the same in experiment [8]. The experiment in a line: Inhibition of NDR2 in human SKNBE2 cells assessed as depletion of MYCN protein at 10 uM measured after 24 hrs in presence of BEZ235 and Cx4945 by Western blot analysis.
The target is the same in experiment [9]. The experiment in a line: Inhibition of NDR2 in human SKNBE2 cells assessed as depletion of MYCN protein at 10 uM measured after 24 hrs in presence of CHIR-124 and BEZ235 by Western blot analysis.
For experiment [10] the target is unchanged. The experiment in a line: Inhibition of NDR2 in human SKNBE2 cells assessed as depletion of MYCN protein at 10 uM measured after 24 hrs in presence of CHIR-124, BEZ235 and Cx4945 by Western blot analysis.
Experiment [11] concerns the target T2, N-myc proto-oncogene protein (Homo sapiens). The experiment in a line: Induction of MYCN degradation in human SKNBE2 cells at 5 uM incubated for 24 hrs by Western blot analysis.
The target is the same in experiment [12]. The experiment in a line: Induction of MYCN degradation in human SKNBE2 cells at 5 to 15 uM incubated for 24 hrs by Western blot analysis. Particulars: dose 5-15 µM.
In experiment [13] the test system is SKNBE2. The experiment in a line: Inhibition of PI3K in human SKNBE2 cells assessed as degradation of MYCN protein at 10 to 15 uM incubated for 24 hrs by Western blotting analysis. Particulars: dose 10-15 µM.
Experiment [14] concerns the target T2, N-myc proto-oncogene protein (Homo sapiens). The experiment in a line: Induction of MYCN degradation in human SKNBE2 cells at 45 uM incubated for 24 hrs by Western blot analysis.
Experiment [15] shares this target. The experiment in a line: Induction of MYCN degradation in human SKNBE2 cells at 5 to 50 uM incubated for 24 hrs by Western blot analysis. Particulars: dose 5-50 µM.
Experiment [16] deals with Serine/threonine-protein kinase 38-like (Homo sapiens) (UniProt Q9Y2H1). The experiment in a line: Inhibition of NDR2 in human SKNBE2 cells assessed as depletion of MYCN protein at 10 uM measured after 24 hrs in presence of CHIR-124 and Cx4945 by Western blot analysis.
Experiment [17] relates to SKNBE2. The experiment in a line: Inhibition of CK2 in human SKNBE2 cells assessed as reduction in MYCN/GADPH protein ratio at 20 uM incubated for 24 hrs in presence of CHIR-124/BEZ235 by Western blotting analysis.
Experiment [18] has as its system SKNBE2. The experiment in a line: Inhibition of PI3K in human SKNBE2 cells assessed as reduction in MYCN/GADPH protein ratio at 5 uM incubated for 24 hrs in presence of Cx945 by Western blotting analysis.
The test system of experiment [19] is SKNBE2. The experiment in a line: Inhibition of PI3K in human SKNBE2 cells assessed as degradation of MYCN protein at 5 to 10 uM incubated for 24 hrs by Western blotting analysis. Particulars: dose 5-10 µM.
Experiment [20] deals with SKNBE2. The experiment in a line: Inhibition of PI3K in human SKNBE2 cells assessed as reduction in MYCN/GADPH protein ratio at 5 uM incubated for 24 hrs in presence of CHIR-124 by Western blotting analysis.
In experiment [21] the test system is SKNBE2. The experiment in a line: Inhibition of PI3K in human SKNBE2 cells assessed as depletion of MYCN protein at 5 uM measured after 24 hrs in presence of Cx4945 by Western blot analysis.
Experiment [22] relates to SKNBE2. The experiment in a line: Inhibition of PI3K in human SKNBE2 cells assessed as depletion of MYCN protein at 5 uM measured after 24 hrs in presence of CHIR-124 by Western blot analysis.
In experiment [23] the test system is SKNBE2. The experiment in a line: Inhibition of PI3K in human SKNBE2 cells assessed as depletion of MYCN protein at 5 uM measured after 24 hrs in presence of NG25 by Western blot analysis.
In experiment [24] the test system is SKNBE2. The experiment in a line: Inhibition of PI3K in human SKNBE2 cells assessed as depletion of MYCN protein at 5 uM measured after 24 hrs in presence of Cx4945 and CHIR-124 by Western blot analysis.
Experiment [25] concerns SKNBE2. The experiment in a line: Inhibition of PI3K in human SKNBE2 cells assessed as depletion of MYCN protein at 5 uM measured after 24 hrs in presence of Cx4945 and NG25 by Western blot analysis.
Experiment [26] deals with SKNBE2. The experiment in a line: Inhibition of PI3K in human SKNBE2 cells assessed as depletion of MYCN protein at 5 uM measured after 24 hrs in presence of NG25 and CHIR-124 by Western blot analysis.
In experiment [27] the test system is SKNBE2. The experiment in a line: Inhibition of PI3K in human SKNBE2 cells assessed as depletion of MYCN protein at 5 uM measured after 24 hrs in presence of NG25, Cx4945 and CHIR-124 by Western blot analysis.
Experiment [28] has as its system SKNBE2. The experiment in a line: Inhibition of PI3K in human SKNBE2 cells assessed as reduction in MYCN/GADPH protein ratio at 5 uM incubated for 24 hrs in presence of […]/CHIR-124 by Western blotting analysis.

Activity calls are given as the source filed them. No cut-off for these calls is given here.

In the case of `CCN1CCN(c2ccc(Nc3cc(N(C)C(=O)Nc4c(Cl)c(OC)cc(OC)c4Cl)ncn3)cc2)CC1`, in [1], the inhibition result was “Dose-Dependent Effect”.

Consider `Cn1cc(-c2[nH]c3cc(NC(=O)[C@H](N)C4CCCCC4)cc4c3c2C=NNC4=O)cn1`, for which, in experiment [2], the inhibition entry was “Active”.

For `COc1cc(C)c(Sc2cnc(NC(=O)c3ccc(CNC(C)C(C)(C)C)cc3)s2)cc1C(=O)N1CCN(C(C)=O)CC1` (stereo not given), the Activity result in experiment [3] is “Dose-Dependent Effect”.

Regarding `CCN1CCN(Cc2ccc(NC(=O)c3ccc(C)c(Oc4ccnc5[nH]ccc45)c3)cc2C(F)(F)F)CC1`, the inhibition result in experiment [1] is “Dose-Dependent Effect”. The result in experiment [4] was inactive. For the same molecule, the inhibition result in experiment [5] is “inactive”. Also, the inhibition result in [6], in experiment [7], in [8], in experiment [9] and in experiment [10] was “Active” throughout.

Consider `CC(C)CCOc1ccc2c(c1)OCC(c1ccc(O)c(O)c1)C2` (stereo not given), for which the outcome in experiment [11] was Active.

Turning to `CCCCCCOc1ccc2c(=O)c(-c3ccc(O)c(O)c3)coc2c1`, the result in [12] was Active.

Regarding `CS(=O)(=O)N1CCN(Cc2cc3nc(-c4cccc5[nH]ncc45)nc(N4CCOCC4)c3s2)CC1`, the inhibition entry with SKNBE2 [13] is “inactive”.

Turning to `CC(C)CCOc1ccc2occ(-c3ccc(O)c(O)c3)c(=O)c2c1`, the outcome in [14] was Active.

On to `CCCOc1ccc2c(=O)c(-c3ccc(O)c(O)c3)coc2c1`, for which the result in experiment [15] was Active.

On to `COc1cc(N2CCC(N3CCN(C)CC3)CC2)ccc1Nc1ncc(Cl)c(Nc2ccccc2S(=O)(=O)C(C)C)n1`, for which, in experiment [1], the inhibition entry is “Dose-Dependent Effect”.

As for `O=C(O)c1ccc2c(c1)nc(Nc1cccc(Cl)c1)c1ccncc12`, the inhibition entry (in experiment [16]; in the experiment on SKNBE2 [17]) was “Active” each time.

Turning to `Cn1c(=O)n(-c2ccc(C(C)(C)C#N)cc2)c2c3cc(-c4cnc5ccccc5c4)ccc3ncc21`, the inhibition entry in the experiment on SKNBE2 [18], in the experiment on SKNBE2 [20], with SKNBE2 [21], with SKNBE2 [22], with SKNBE2 [23] and with SKNBE2 [24] was “Active” throughout. The inhibition entry in the experiment with SKNBE2 [25], with SKNBE2 [26], in the experiment on SKNBE2 [27] and in the experiment with SKNBE2 [28] was “Active” throughout. In the experiment with SKNBE2 [19], the inhibition entry was “inactive”.
